Consider 9 compounds from ChEMBL document CHEMBL1142246, “Azetidine-2,4-diones (4-oxo-beta-lactams) as scaffolds for designing elastase inhibitors” (J Med Chem, 2008).

The structures appear in SMILES notation. The source made the active and inactive calls. The rule behind the calls is not given here.

The species entered for one assay is Sus scrofa. Description: (§1) Inhibition of pig pancreatic elastase.
With `CCOC(=O)CN1C(=O)C(CC)(CC)C1=O`, the outcome was inactive. As to `CCC1(CC)C(=O)N(Cc2ccccc2)C1=O`, the result was inactive.

Target in another assay: not listed separately
The description is as §1. Further details: species or system Sus scrofa.
On to `CC1(C)C(=O)N(c2ccc(Cl)cc2)C1=O`, for which the inhibition constant Ki was 10 µM. In other words, the double-digit micromolar range.

For the compound `CCC1(CC)C(=O)N(c2ccccc2)C1=O`, the affinity corresponds to a Ki of 10.2 µM. Same read-out and setting: then `CCC1(CC)C(=O)N(c2ccc(C#N)cc2)C1=O`, with 6.02 µM; and `CCC1(CC)C(=O)N(c2ccc(OC)cc2)C1=O`, with 9.81 µM.

On to `CCC1(CC)C(=O)N(c2ccc(Cl)cc2)C1=O`, for which the affinity, expressed as Ki, was 8.47 µM. Still for that read-out and setting: with `CC1(C)C(=O)N(Cc2ccccc2)C1=O` the figure was 184 µM; with `CCC1(CC)C(=O)N(c2ccc(C)cc2)C1=O`, 7.46 µM.

By Ki is commonly meant the dissociation constant of the complex between target and ligand, obtained from inhibition or displacement. A lower Ki goes with higher affinity.
